Assay results from the CheMixHub viscosity set.

Assay: xn = mol fraction of the nth substance listed

O=C1CCCCC1 + CC(C)CC(C)(C)C
viscosity [mPa·s]
Conditions	293.15 K	298.15 K	303.15 K	308.15 K	313.15 K
101 kPa, x1 = 0.0911	0.5562	0.5245	0.497	0.4702	0.4465
101 kPa, x1 = 0.127	–	0.551	–	–	–
101 kPa, x1 = 0.1761	0.6094	0.5717	0.5392	0.5101	0.4831
101 kPa, x1 = 0.1855	–	0.575	–	–	–
101 kPa, x1 = 0.3071	–	0.643	–	–	–
101 kPa, x1 = 0.3304	0.7148	0.6685	0.6303	0.5925	0.5593
101 kPa, x1 = 0.4005	0.7809	0.729	0.6869	0.643	0.6047
101 kPa, x1 = 0.4354	–	0.741	–	–	–
101 kPa, x1 = 0.5171	–	0.836	–	–	–
101 kPa, x1 = 0.5288	0.9379	0.8709	0.8135	0.7598	0.7134
101 kPa, x1 = 0.5877	1.037	0.9596	0.8935	0.8326	0.7791
101 kPa, x1 = 0.6149	–	0.969	–	–	–
101 kPa, x1 = 0.6961	1.231	1.132	1.046	0.969	0.9139
101 kPa, x1 = 0.7054	–	1.114	–	–	–
101 kPa, x1 = 0.7937	1.479	1.353	1.248	1.152	1.07
101 kPa, x1 = 0.7982	–	1.317	–	–	–
101 kPa, x1 = 0.8836	–	1.526	–	–	–
101 kPa, x1 = 0.9232	1.947	1.771	1.628	1.49	1.368
101.33 kPa, x1 = 0.103	–	0.514	0.485	0.458	–
101.33 kPa, x1 = 0.2023	–	0.563	0.53	0.501	–
101.33 kPa, x1 = 0.3	–	0.626	0.589	0.556	–
101.33 kPa, x1 = 0.4044	–	0.717	0.667	0.623	–
101.33 kPa, x1 = 0.5041	–	0.808	0.751	0.702	–
101.33 kPa, x1 = 0.6035	–	0.932	0.865	0.805	–
101.33 kPa, x1 = 0.7029	–	1.104	1.016	0.953	–
101.33 kPa, x1 = 0.8014	–	1.309	1.199	1.106	–
101.33 kPa, x1 = 0.9008	–	1.58	1.44	1.322	–

CC(=O)CC(C)C + CC(C)CCO
viscosity [mPa·s]
Conditions	x1 = 0.1006	x1 = 0.2027	x1 = 0.3201	x1 = 0.3948	x1 = 0.5073	x1 = 0.6072	x1 = 0.7013	x1 = 0.8032	x1 = 0.8927
298.15 K, 101 kPa	2.58	1.89	1.4	1.2	0.965	0.839	0.728	0.648	0.595
298.15 K, 101.3 kPa	2.58	1.89	1.4	1.2	0.965	0.839	0.728	0.648	0.595
303.15 K, 101.3 kPa	2.26	1.69	1.28	1.1	0.903	0.781	0.682	0.617	0.566
308.15 K, 101.3 kPa	1.99	1.51	1.17	1.01	0.837	0.728	0.64	0.579	0.534
313.15 K, 101.3 kPa	1.75	1.36	1.05	0.926	0.766	0.681	0.602	0.545	0.506

CC(=O)CC(C)C + CC(C)CO
viscosity [mPa·s], 101 kPa
Conditions	298.15 K	303.15 K	308.15 K
x2 = 0.3997	–	0.703	0.656
x2 = 0.4937	0.851	0.786	0.73

O=C1CCCCC1 + CC(C)CO
298.15 K, 101 kPa
Conditions	viscosity [mPa·s]
x1 = 0.1012	2.58
x1 = 0.2016	2.15
x1 = 0.299	1.9
x1 = 0.3994	1.77
x1 = 0.5008	1.72
x1 = 0.5978	1.7
x1 = 0.6982	1.69
x1 = 0.7981	1.71
x1 = 0.8985	1.77

CC(C)CC(=O)CC(C)C + CC(C)O
viscosity [mPa·s], 100 kPa
Conditions	x1 = 0.0818	x1 = 0.1619	x1 = 0.2451	x1 = 0.3518	x1 = 0.4413	x1 = 0.5637	x1 = 0.6549	x1 = 0.7367	x1 = 0.8528	x1 = 0.9379
293.15 K	1.93	1.52	1.19	0.92	0.76	0.65	0.63	0.66	0.77	0.87
298.15 K	1.73	1.41	1.14	0.88	0.72	0.62	0.61	0.64	0.74	0.83
303.15 K	1.51	1.26	1.05	0.83	0.7	0.6	0.59	0.62	0.72	0.8
308.15 K	1.32	1.12	0.95	0.77	0.66	0.58	0.57	0.6	0.68	0.76
313.15 K	1.18	1.01	0.87	0.72	0.63	0.56	0.55	0.57	0.64	0.71
318.15 K	1.05	0.92	0.8	0.67	0.6	0.54	0.53	0.55	0.61	0.67
323.15 K	0.93	0.82	0.72	0.63	0.57	0.52	0.51	0.53	0.58	0.63

CC(C)CC(C)(C)C + CC(C)O
viscosity [mPa·s], 101 kPa
Conditions	298.15 K	308.15 K
x1 = 0.0513	1.722	–
x1 = 0.0555	1.703	–
x1 = 0.1045	1.47	–
x1 = 0.1511	1.3	–
x1 = 0.2103	1.123	–
x1 = 0.2394	1.066	–
x1 = 0.2822	0.947	–
x1 = 0.4108	0.751	–
x1 = 0.4264	0.734	–
x1 = 0.5195	0.64	–
x1 = 0.5751	0.599	–
x1 = 0.6545	0.562	–
x1 = 0.6978	0.54	–
x1 = 0.8094	0.505	–
x1 = 0.9505	0.49	–
x2 = 0.05	0.482	0.432
x2 = 0.1	0.486	0.434
x2 = 0.1501	0.493	0.44
x2 = 0.2	0.503	0.447
x2 = 0.25	0.515	0.457
x2 = 0.3	0.53	0.468
x2 = 0.35	0.55	0.483
x2 = 0.4	0.576	0.501
x2 = 0.45	0.608	0.524
x2 = 0.5	0.646	0.552
x2 = 0.55	0.694	0.586
x2 = 0.6	0.751	0.628
x2 = 0.65	0.819	0.677
x2 = 0.7	0.901	0.736
x2 = 0.75	1.003	0.806
x2 = 0.8	1.122	0.898
x2 = 0.85	1.277	1.006
x2 = 0.9	1.407	1.145
x2 = 0.95	1.707	1.31

CCCCCC(=O)O + CC(C)[C@@H]1CC[C@@H](C)C[C@H]1O
Conditions	viscosity [mPa·s]
298 K, 101 kPa, x2 = 0.333	8.9

CC(=O)CC(C)C + CCC(C)(C)O
viscosity [mPa·s]
Conditions	298.15 K	303.15 K	308.15 K	313.15 K
101 kPa, x1 = 0.1	2.52	–	–	–
101 kPa, x1 = 0.2	1.823	–	–	–
101 kPa, x1 = 0.3	1.376	–	–	–
101 kPa, x1 = 0.4	1.1	–	–	–
101 kPa, x1 = 0.5	0.928	–	–	–
101 kPa, x1 = 0.6	0.815	–	–	–
101 kPa, x1 = 0.7	0.727	–	–	–
101 kPa, x1 = 0.8	0.65	–	–	–
101 kPa, x1 = 0.9	0.584	–	–	–
101.3 kPa, x1 = 0.1053	2.5	2.11	1.79	1.52
101.3 kPa, x1 = 0.1952	1.77	1.52	1.32	1.15
101.3 kPa, x1 = 0.305	1.37	1.21	1.07	0.951
101.3 kPa, x1 = 0.4324	1.05	0.946	0.856	0.776
101.3 kPa, x1 = 0.495	0.95	0.866	0.786	0.721
101.3 kPa, x1 = 0.6	0.813	0.747	0.69	0.64
101.3 kPa, x1 = 0.7004	0.719	0.671	0.627	0.587
101.3 kPa, x1 = 0.7937	0.641	0.603	0.569	0.538
101.3 kPa, x1 = 0.9001	0.589	0.558	0.529	0.503

O=C1CCCCC1 + CCC(C)=O
298.15 K, 101 kPa
Conditions	viscosity [mPa·s]
x1 = 0.0755	0.45
x1 = 0.1552	0.523
x1 = 0.2395	0.576
x1 = 0.3288	0.655
x1 = 0.4235	0.739
x1 = 0.5243	0.868
x1 = 0.6316	1.03
x1 = 0.7461	1.258
x1 = 0.8686	1.587
